In ChEMBL document CHEMBL4304779, “Treatment of Cancers by Inhibition of Isoprenylcysteine Carboxyl Methyltransferase” (ACS Med Chem Lett, 2019):

Molecular target: Protein-S-isoprenylcysteine O-methyltransferase (Homo sapiens, UniProt O60725)
Test: Inhibition of recombinant human ICMT expressed in baculovirus infected Sf9 insect cells using SAM as substrate preincubated for 30 mins followed by substrate addition and measured after 90 mins by MTase-Glo assay

Protein-S-isoprenylcysteine O-methyltransferase, sequence (O60725 whole entry): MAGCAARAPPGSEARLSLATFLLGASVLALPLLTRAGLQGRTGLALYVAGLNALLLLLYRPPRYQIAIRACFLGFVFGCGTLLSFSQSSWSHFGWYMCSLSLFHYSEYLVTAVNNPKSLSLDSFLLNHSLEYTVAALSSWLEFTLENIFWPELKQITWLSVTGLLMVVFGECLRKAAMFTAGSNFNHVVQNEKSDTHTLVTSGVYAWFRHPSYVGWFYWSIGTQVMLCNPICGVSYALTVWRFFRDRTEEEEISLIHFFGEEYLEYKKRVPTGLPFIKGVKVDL

IC50 [nM]	SMILES
0.08	COc1cc(C#N)ccc1O[C@@H](C)COc1cccc(-n2ccnc2C)c1
1.6	Cc1cc(C#N)ccc1O[C@@H](C)COc1cccc(-c2ccnn2C)c1
